Measured values as given in PMC2854136 (Biochemistry, 2009).
Values joined by “and” are separate entries in the source; they are usually repeats but may differ in a detail not shown here. Equal values may be shown once. Read-outs that look alike come from different tables or passages of the source.

Columns and labels:
[1] = molecular target: T1, Escherichia coli glutaminyl-tRNA synthetase (GlnRS) (Escherichia coli, UniProt P00962); assay type: biochemical; conditions: 3′-dATP versus ATP
Target sequence in this assay (P00962 2-554): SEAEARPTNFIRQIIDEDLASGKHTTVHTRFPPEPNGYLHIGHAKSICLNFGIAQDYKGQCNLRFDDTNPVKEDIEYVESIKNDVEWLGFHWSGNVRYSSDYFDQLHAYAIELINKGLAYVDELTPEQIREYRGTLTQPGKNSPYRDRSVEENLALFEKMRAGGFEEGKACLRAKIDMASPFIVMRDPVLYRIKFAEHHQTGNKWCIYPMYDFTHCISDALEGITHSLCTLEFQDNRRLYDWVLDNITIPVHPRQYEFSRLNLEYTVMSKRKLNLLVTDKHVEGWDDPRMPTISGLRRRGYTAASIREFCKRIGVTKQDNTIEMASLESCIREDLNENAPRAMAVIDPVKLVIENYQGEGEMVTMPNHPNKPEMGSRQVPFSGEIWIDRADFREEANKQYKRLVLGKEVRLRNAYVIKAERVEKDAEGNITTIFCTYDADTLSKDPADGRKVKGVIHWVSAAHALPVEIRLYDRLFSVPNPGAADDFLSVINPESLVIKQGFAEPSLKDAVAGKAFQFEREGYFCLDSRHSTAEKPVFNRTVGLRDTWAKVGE

[2] = molecular target: T1, Escherichia coli glutaminyl-tRNA synthetase (GlnRS); assay type: biochemical
Target sequence in this assay (P00962 2-554): as above

[3] = molecular target: T1, Escherichia coli glutaminyl-tRNA synthetase (GlnRS); assay: Misacylation of tRNA^Gln with glutamate; assay type: biochemical; conditions: very high glutamate concentrations, single-turnover conditions
Target sequence in this assay (P00962 whole entry): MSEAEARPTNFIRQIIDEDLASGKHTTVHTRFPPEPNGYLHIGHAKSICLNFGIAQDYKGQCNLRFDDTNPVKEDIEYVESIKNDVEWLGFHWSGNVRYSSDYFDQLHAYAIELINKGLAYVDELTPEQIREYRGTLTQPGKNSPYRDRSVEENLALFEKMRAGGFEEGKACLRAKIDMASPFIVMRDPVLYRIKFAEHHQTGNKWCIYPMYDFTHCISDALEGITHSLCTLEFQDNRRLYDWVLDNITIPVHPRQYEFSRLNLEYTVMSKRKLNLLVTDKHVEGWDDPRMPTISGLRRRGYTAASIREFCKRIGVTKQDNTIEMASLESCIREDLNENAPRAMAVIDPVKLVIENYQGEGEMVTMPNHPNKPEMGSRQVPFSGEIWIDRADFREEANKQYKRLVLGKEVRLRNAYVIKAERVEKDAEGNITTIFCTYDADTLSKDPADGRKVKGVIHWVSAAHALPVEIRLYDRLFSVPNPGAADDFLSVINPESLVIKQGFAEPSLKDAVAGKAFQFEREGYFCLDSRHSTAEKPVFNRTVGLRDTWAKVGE

[4] = molecular target: T1, Escherichia coli glutaminyl-tRNA synthetase (GlnRS); conditions: wild-type GlnRS, cited from earlier work
Target sequence in this assay (P00962 2-554): as the sequence (P00962 2-554) above

Row | Compound | fold diminution of kobs from wild-type (ATP) reaction [1] | fold diminution of kcat from wild-type (ATP) reaction ([2]; 3′-dATP versus ATP) | fold elevation of Km (ATP/3′-dATP) from wild-type (ATP) reaction ([2]; 3′-dATP versus ATP) | fold elevation of Km (GLN) from wild-type (ATP) reaction ([2]; 3′-dATP versus ATP) | Km ([2]; read-out: Km (ATP/3′-dATP), wild-type GlnRS, Km for 3′-dATP) | kcat ([2]; wild-type GlnRS, 3′-dATP in place of ATP, 50 nM enzyme, 12.5 μM tRNA, 37 °C) | misacylation of tRNA^Gln with glutamate using 3′-dATP [3] | Km ([4]; read-out: Km (ATP/3′-dATP), Km for ATP) | kcat ([4]; ATP-mediated glutaminylation, 37 °C)
1 | 3′-dATP | 47 fold | 70 fold and 71 fold | 2 fold | 16 fold | 410 ± 30 µM | 0.045 ± 0.02 s⁻¹ | unable to detect any reaction |  | 
2 | Nc1ncnc2c1ncn2[C@@H]1O[C@H](COP(=O)(O)OP(=O)(O)OP(=O)(O)O)[C@@H](O)[C@H]1O [ATP] |  |  |  |  |  |  |  | 200 ± 20 µM | 3.2 ± 0.5 s⁻¹
